Data: patent publication US20080318977A1, “Condensed Pyridines as Kinase Inhibitors” (Palau Pharma, S.A., priority 2004, published 2008)

Target: T1, p38α (Homo sapiens, UniProt Q16539)
T1 construct: GST-tagged fusion protein corresponding to full-length human p38α; purchased Upstate 14-251; host or cells: E. coli
Test: Inhibition of p38α enzyme activity (IMAP fluorescence polarisation kinase assay)
Format: biochemical
Details: at 1 μM compound; ATP 20 μM; 2 h at RT
Procedure: Inhibition of p38α Enzyme Activity:
Compound stocks in 100% DMSO are first diluted in DMSO to a concentration of 1×10^−3 up to 3.2×10^−8 M and then further diluted in kinase assay buffer (10 mM Tris-HCl, pH 7.2, 10 mM MgCl2, 0.01% tween 20, 0.05% NaN3, 1 mM dithiothreitol) to a concentration range of 4×10^−5 up to 1.3×10^−9 M. Of each compound solution 5 μL is transferred into a 384-wells black Optiplate (Packard, 6007279), followed by the addition of 5 μL of ATP (Boehringer, 519987), 5 μL of Fluorescein-labeled EGFR (Epidermal Growth Factor Receptor) peptide substrate and 5 μL of active p38 cc kinase (GST-tagged fusion protein corresponding to full-length human p38α; expressed in E. coli by Upstate, 14-251), all diluted in kinase assay buffer (see final concentrations in Table 1). The mixture is incubated for 2 h at room temperature (RT). The reaction is stopped by the addition of 60 μL of IMAP binding reagent, which has been diluted 400-fold in IMAP binding buffer (stock concentration 5 times diluted in Milli Q). After incubation for 30 min at RT, FP is measured on an Analyst™ multimode fluorescence plate reader (Molecular Devices) at excitation wavelength of 485 nm and emission wavelength of 530 nm (1 sec/well).
Data handling is performed as follows: percentage effects are calculated based on no-p38-enzyme-addition as the maximum inhibitory effect and with p38 enzyme addition as the minimum inhibitory effect. In each experiment, individual compound concentrations are tested in duplicate and percentage effect is calculated for each concentration.

T1 sequence (Q16539 whole entry, the tested form may be a part): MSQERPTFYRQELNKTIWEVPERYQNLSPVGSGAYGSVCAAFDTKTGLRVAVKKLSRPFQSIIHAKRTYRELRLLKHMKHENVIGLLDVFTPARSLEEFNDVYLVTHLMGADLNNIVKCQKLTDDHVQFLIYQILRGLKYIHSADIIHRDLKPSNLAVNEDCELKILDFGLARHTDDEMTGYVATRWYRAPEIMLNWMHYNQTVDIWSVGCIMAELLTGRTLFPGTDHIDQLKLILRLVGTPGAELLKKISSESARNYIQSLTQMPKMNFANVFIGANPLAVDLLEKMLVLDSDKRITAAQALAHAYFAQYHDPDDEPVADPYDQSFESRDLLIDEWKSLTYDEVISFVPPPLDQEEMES

`Cn1c(C(=O)NCCO)cc2nc(-c3ccc(F)cc3)c(-c3ccncc3)c(-c3ccc(F)cc3)c21` [Example 13, 5,7-Bis(4-fluorophenyl)-N-(2-hydroxyethyl)-1-methyl-6-(4-pyridyl)pyrrolo[3,2-b]pyridine-2-carboxamide] showed an inhibition at 1 µM of over 50%.

Work on `CC(=O)c1nc2nc(-c3ccc(F)cc3)c(-c3ccncc3)c(-c3ccc(F)cc3)c2n1C` [Example 19, 1-[5,7-Bis(4-fluorophenyl)-1-methyl-6-(4-pyridyl)imidazo[4,5-b]pyridin-2-yl]ethanone] yielded an inhibition at 1 µM of over 50%.

In the case of `COC(=O)CNCc1cc2nc(-c3ccc(F)cc3)c(-c3ccncc3)c(-c3ccc(F)cc3)c2n1C` [Example 34, {[5,7-Bis-(4-fluoro-phenyl)-1-methyl-6-pyridin-4-yl-1H-pyrrolo[3,2-b]pyridin-2-ylmethyl]-amino}-acetic acid methyl ester], the inhibition at 1 µM is reported as over 50%.

Compound `OCc1cc2c(-c3ccc(F)cc3)c(-c3ccncc3)c(-c3ccc(F)cc3)nc2o1` [Example 22, [4,6-Bis(4-fluorophenyl)-5-(4-pyridyl)furo[2,3-b]pyridin-2-yl]methanol] has an inhibition at 1 µM of over 50%.

Compound `Cc1nsc2nc(-c3ccc(F)cc3)c(-c3ccnc(NCC4CC4)n3)cc12` [Example 43, Cyclopropylmethyl-{4-[6-(4-fluoro-phenyl)-3-methyl-isothiazolo[5,4-b]pyridin-5-yl]-pyrimidin-2-yl}-amine] has an inhibition at 1 µM of over 50%.

With `O=C(NCCO)c1cc2c(-c3ccc(F)cc3)c(-c3ccncc3)c(-c3ccc(F)cc3)nc2o1` [Example 27, 4,6-Bis-(4-fluoro-phenyl)-5-pyridin-4-yl-furo[2,3-b]pyridine-2-carboxylic acid (2-hydroxy-ethyl)-amide] the inhibition at 1 µM was over 50%.

With `CC(C)(O)c1cc2c(-c3ccc(F)cc3)c(-c3ccncc3)c(-c3ccc(F)cc3)nc2o1` [Example 16, 2-[4,6-Bis-(4-fluorophenyl)-5-(4-pyridyl)furo[2,3-b]pyridin-2-yl]propan-2-ol] the inhibition at 1 µM was over 50%.

`Cn1c(C(=O)NCCN2CCCCC2)cc2nc(-c3ccc(F)cc3)c(-c3ccncc3)c(-c3ccc(F)cc3)c21` [Example 31, 5,7-Bis-(4-fluoro-phenyl)-1-methyl-6-pyridin-4-yl-1H-pyrrolo[3,2-b]pyridine-2-carboxylic acid (2-piperidin-1-yl-ethyl)-amide] showed an inhibition at 1 µM of over 50%.

`Cc1nsc2nc(-c3ccc(F)cc3)c(-c3ccnc(N[C@@H](C)c4ccccc4)n3)cc12` [Example 45, (S)-{4-[6-(4-Fluoro-phenyl)-3-methyl-isothiazolo[5,4-b]pyridin-5-yl]-pyrimidin-2-yl}-(1-phenyl-ethyl)-amine] showed an inhibition at 1 µM of over 50%.
